From US6355676B1, “Fumaric acid micro tablets” (Fumapharm AG, priority 1998, dated 2002)
Where a name gives a salt, the structure may show the parent alone.

Legend:
[1] = tested on: human mononuclear cells of the peripheral blood (PBMC); experiment: Endotoxin-stimulated TNF-α secretion in PBMC; type: cell-based
Text: (§1) With multiple re-exposure, the endotoxin-induced increase in TNF-α secretion is reduced, i.e. adaptation takes place.

[2] = tested on: isolated monocytes; experiment: Endotoxin-stimulated TNF-α secretion in isolated monocytes; type: cell-based, human; details: initial exposure
Text: as §1

## COC(=O)/C=C/C(=O)O [methyl hydrogen fumarate]
[1]; initial exposure, PBMC
  endotoxin-stimulating TNF-α secretion: initially increases
[1]; multiple re-exposure, cell type not restated
  endotoxin-induced increase in TNF-α secretion: reduced
[2]
  endotoxin-stimulating TNF-α secretion: initially increases
